The subject of series [1] is Rattus norvegicus. Kind of series: Effect on motor function in ip dosed Sprague-Dawley rat assessed as effect on locomotor activity after 16 hrs post dose. Format: ADME, organism-based. The note with it: in vivo.
Series [2] relates to Rattus norvegicus. The series can be described thus: Induction of sedation in non-food-deprived Sprague-Dawley rat subjected to pre-pulse of 12 db followed by 120 db pulse assessed as animal jump height level at 13.5 and 54 mg/kg, po dosed […] before test. In kind it is organism-based. The note with it: in vivo.
For series [3], the system named is Rattus norvegicus. Kind of series: Effect on motor function in ip dosed Sprague-Dawley rat assessed as effect on locomotor activity after 1.5 hrs post dose. In kind it is ADME, organism-based. The note with it: in vivo.
Series [4] concerns Rattus norvegicus. Kind of series: Reduction in water intake in 24 hrs food-deprived Sprague-Dawley rat at 6.75 to 54 mg/kg, ip followed by standard chow pellets feeding and measured for 6.5 hrs post dose. Format: functional, organism-based.
Series [5] relates to Rattus norvegicus. Kind of series: Reduction in body weight gain in non-food-deprived Sprague-Dawley rat at 13.5 mg/kg, ip qd for 22 days measured between day-31 and day-60 post dose. In kind it is functional, organism-based.
For series [6], the system named is Rattus norvegicus. Kind of series: Reduction in body weight gain in non-food-deprived Sprague-Dawley rat at 6.75 to 54 mg/kg, ip dosed 30 mins before beginning of dark cycle followed by exposure to standard chow pellets and measured 15.5 hrs post dose. Format: functional, organism-based.
The subject of series [7] is Rattus norvegicus. The series can be described thus: Reduction in 24 hrs food intake in 24 hrs food-deprived Sprague-Dawley rat at 6.75 to 54 mg/kg, ip followed by standard chow pellets feeding and measured for 6.5 hrs post dose. In kind it is functional, organism-based.
The subject of series [8] is Rattus norvegicus. The series can be described thus: Reduction in body weight gain in non-food-deprived Sprague-Dawley rat at 13.5 mg/kg, ip qd for 22 days measured between day-4 and day-31 post dose. In kind it is functional, organism-based.
Series [9] has as its system Rattus norvegicus. The series can be described thus: Reduction in water intake in non-food-deprived Sprague-Dawley rat at 6.75 to 54 mg/kg, ip dosed 30 mins before beginning of dark cycle followed by exposure to standard chow pellets and measured 15.5 hrs post dose. In kind it is functional, organism-based.
Series [10] concerns Rattus norvegicus. Kind of series: Reduction in body weight gain in 24 hrs food-deprived Sprague-Dawley rat at 6.75 to 54 mg/kg, ip followed by standard chow pellets feeding and measured for 6.5 hrs post dose. In kind it is functional, organism-based.
Series [11] deals with Rattus norvegicus. Kind of series: Reduction in body weight gain in 24 hrs food-deprived Sprague-Dawley rat at 27 and 54 mg/kg, ip followed by standard chow pellets feeding and measured for 6.5 hrs post dose. In kind it is functional, organism-based.
Series [12] deals with Rattus norvegicus. Kind of series: Reduction in body weight gain in non-food-deprived Sprague-Dawley rat at 13.5 mg/kg, ip qd for 22 days measured on day-1 and day-3 post dose. In kind it is functional, organism-based.
In series [13] the test system is Rattus norvegicus. The series can be described thus: Reduction in food intake in 24 hrs food-deprived Sprague-Dawley rat assessed as food intake level at 54 mg/kg, po followed by standard chow pellets feeding and measured 8 hrs post dose (reference value: 14g). In kind it is functional.
Series [14] deals with Rattus norvegicus. Kind of series: Induction of sedation in non-food-deprived Sprague-Dawley rat subjected to pre-pulse of 12 db followed by 120 db pulse assessed as animal jump height level at 6.75 mg/kg, po dosed […] before test. The conditions noted are these: in vivo. Format: organism-based.
Series [15] deals with Rattus norvegicus. Kind of series: Induction of sedation in ip dosed Sprague-Dawley rat assessed as relaxed behavior after 16 hrs post dose. Format: organism-based. The note with it: in vivo.
Series [16] concerns Rattus norvegicus. Kind of series: Reduction in food intake in 24 hrs food-deprived Sprague-Dawley rat at 25 to 100 nmol, icv measured 2.5 hrs post dose relative to control. Format: functional.
For series [17], the target named is G-protein coupled receptor 6 (Homo sapiens) (UniProt P46095). Kind of series: Activity at rat G-protein GSalpha fused GPR6 (unknown origin) expressed in HEK293 cell membranes assessed as effect on [35S]GTPgammaS binding pre-incubated for 5 to 10 mins followed by 60 mins incubation in presence of [35S]GTPgammaS by scintillation proximity assay. In kind it is functional. (GTPγS is a poorly hydrolysed GTP analogue; its binding reports G protein activation.)

Series [18] relates to Rattus norvegicus. The series can be described thus: Induction of sedation in ip dosed Sprague-Dawley rat assessed as absence of anxiety-like behavior after 16 hrs post dose. In kind it is organism-based. The note with it: in vivo.
Series [19] concerns Rattus norvegicus. Kind of series: Reduction in water intake in 24 hrs food-deprived Sprague-Dawley rat assessed reduction in water intake level at 100 nmol, icv relative to control. Format: functional.

Calls of active or inactive are those of the source. The calls are words filed in the database; no cut-off is given here. Some results are limits rather than exact numbers.

G-protein coupled receptor 6 (Homo sapiens), sequence (P46095 whole entry, the tested form may be a part): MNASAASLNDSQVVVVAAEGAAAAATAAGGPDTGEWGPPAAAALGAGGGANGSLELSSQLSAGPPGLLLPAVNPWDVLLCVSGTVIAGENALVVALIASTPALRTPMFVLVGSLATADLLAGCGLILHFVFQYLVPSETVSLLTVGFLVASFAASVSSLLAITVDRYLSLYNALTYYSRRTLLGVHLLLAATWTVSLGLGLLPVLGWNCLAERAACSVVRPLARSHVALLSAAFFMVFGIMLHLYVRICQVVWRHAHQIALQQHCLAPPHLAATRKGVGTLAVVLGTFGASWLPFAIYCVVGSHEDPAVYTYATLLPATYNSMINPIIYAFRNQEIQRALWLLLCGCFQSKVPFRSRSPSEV

`O=C(/N=C1\SSC2=NCCN21)c1cccs1`: the Activity result in the series on Rattus norvegicus [1] is listed as “Toxic”; with Rattus norvegicus [2] it was “Toxic”; with Rattus norvegicus [3], “Non-toxic”; with Rattus norvegicus [13], 16 g; in the series with Rattus norvegicus [14], “Non-toxic”; in the series on Rattus norvegicus [15], “Toxic”. Moreover, the Activity result with Rattus norvegicus [18] is reported as “Toxic”. The result in the series with Rattus norvegicus [4], with Rattus norvegicus [5], in the series with Rattus norvegicus [6], in the series with Rattus norvegicus [7], in the series on Rattus norvegicus [8] and in the series with Rattus norvegicus [9] was Active. Further, the outcome (in the series with Rattus norvegicus [10]; with Rattus norvegicus [11]; in the series on Rattus norvegicus [12]; in [17]) was Active. Also, in the series on Rattus norvegicus [16], the “fold change (FC)” value was “<=6”. Besides, the “inhibition (INH)” value in the series with Rattus norvegicus [19] is “<=50%”.
